# Results published in PMC10635324, “A Multi-Site Phase I Trial of Veliparib with Standard Radiation and Temozolomide in Patients with Newly Diagnosed Glioblastoma Multiforme (GBM)” (Research Square, 2023).
# Values joined by “and” are separate entries in the source; they are usually repeats but may differ in a detail not shown here. Identical values can stand only once. Like-named read-outs stand apart in the source and are kept apart here.
# Experiments:
# [1] = Plasma pharmacokinetics of veliparib, LC-MS/MS, noncompartmental analysis; type: in vivo, patients; details: for Cmax: human, plasma, oral, 10 mg, read-out: Cmax, maximum drug concentration in plasma
# Method: Patients received a single dose of veliparib one day prior to starting combination therapy with TMZ or RT/TMZ for PK testing after the first single dose as described below. Patients without disease progression, as evaluated by MRI 10-weeks after the initiation of veliparib therapy, received up to four maintenance cycles of the same dose of veliparib in the initial safety cohort or six cycles in phase I veliparib/RT/TMZ cohort. Veliparib was to be given BID for 7 days and TMZ 150–200 mg/m^2 QD for 5 days, repeated every 28 days, with an imaging evaluation after completing every second maintenance cycle.
# Plasma samples were collected to define plasma concentration-time profiles. Samples were collected shortly before dosing and at 0.25, 0.5, 1, 2, 3, 4, 6, 8, and 24 hours after the first dose of six weeks of TMZ and again after achieving steady-state conditions on any day of week 3 of the six weeks (omitting the 24 hour specimen). Samples were analyzed by liquid chromatography-mass spectrometry (LC-MS)/mass spectrometry (MS), Agilent 410B Triple Quadrupole LC/MS system (Agilent Technologies, Inc., Santa Clara, CA).
# The plasma concentration-time data for veliparib was analyzed by noncompartmental methods using model 200 for extravascular input in WinNonlin Professional version 5.0.1. Samples with concentrations below the LLQ of the assay were excluded. The maximum concentration of the drug achieved in plasma (Cmax) and the time that it occurred (tmax) were based upon the observed values following a given dose. Area under the plasma concentration-time curves for 8 h (AUC8) and 24 h (AUC24) after dosing were estimated using the log- linear trapezoidal algorithm. Routines provided in the Data Analysis ToolPak of Microsoft Excel 2003 (11.8231.8221) SP3, Professional Edition (Redmond, WA), were used for the descriptive statistics and statistical tests. Arithmetic averages and standard deviations were calculated for the time of the maximum drug concentration in plasma (tmax). Geometric means were calculated for all other pharmacokinetic variables. The jackknife technique was used to estimate the standard deviation of geometric means.
# [2] = tested on: patients with newly diagnosed glioblastoma; test: Phase I dose-limiting toxicities / adverse events (CTCAE v.3.0); type: in vivo
# Method: This was an open-label, multi-center, phase 1 study. The maximum tolerated dose (MTD) was a dose producing a dose-limiting-toxicity (DLT) rate at 33% or less. A modified 3 + 3 design with 6 patients per dose cohort was used due to 10 weeks long safety evaluation period that potentially 40–50% patient might drop-out study for early disease progression.
# The initial safety group of up to 6 patients included patients who had recently completed standard concurrent RT/TMZ) were then treated with one cycle of low-dose veliparib 10 mg BID along with 6 weeks of once-a day (QD) temozolomide 75 mg/m2/d (no RT). Once this one cycle was complete, patients were permitted to transition to monthly cycles of standard adjuvant temozolomide 150–200 mg/m2/d for five consecutive days each month.
# If safety was confirmed, then the phase I component including radiotherapy would proceed enrolling cohorts of 6 patients to pre-specified escalating dose levels of daily veliparib, ranging from 10 mg BID to 100 mg twice-daily BID daily along with TMZ (75 mg/m^2/d) for 6 weeks in conjunction with standard radiation 60 Gy in 30 fractions.The protocol specified that if excessive toxicity occurred, de-escalation could be introduced by joint decision of study PI, sponsor, and ABTC leadership to a choice of veliparib 10 mg daily, 10 mg every other day or 10 mg BID 1 week on/1 week off for the 6-week period.
# DLTs were events considered possible or probably related to veliparib alone, veliparibib/TMZ or Veliparib/RT per CTCAE v.3.0 including: ≥ grade 3 nonhematological toxicities not resolving with anticonvulsants or steroid treatment excluding grade 3 nausea and dermatitis. Hematologic toxicity was considered dose limiting if there was 1) ANC ≤ 500/mm^3; 2) Platelets ≤ 25,000/mm^3; 3) Grade 3 toxicity that prevents administration of > 75% of the planned temozolomide doses for the first cycle; 4) interruption of treatment for > 14 days. All subjects were monitored for safety throughout the trial.
# [3] = tested on: patients with newly diagnosed glioblastoma; test: Survival from the date of study enrollment; type: in vivo; details: all patients on study
# Description: All subjects were followed until death, and survival from the date of study enrollment was reported to evaluate for any unexpected adverse results.
# [4] = parameters: method as in PMID 17473206; details: rodent model; cited from earlier work
# [5] = parameters: method as in PMID 17473206; details: preclinical, oral; cited from earlier work
# [6] = parameters: method as in PMID 19364967; details: phase 0 clinical trial, oral; cited from earlier work
# [7] = tested on: patients with MGMT methylation; parameters: method as in doi:10.1200/JCO.2022.40.16_suppl.2001; details: cited from earlier work
# [8] = tested on: brain metastasis; parameters: method as in PMID 25682091; details: Veliparib 40 mg BID or 200 mg BID added to whole brain radiotherapy; cited from earlier work
# [9] = parameters: method as in PMID 28243955, PMID 28497258, PMID 30456480, PMID 27503200, PMID 21795476; details: cited from earlier work
# [10] = parameters: method as in PMID 26202595; details: cited from earlier work
# [11] = Single dose 10 mg Veliparib, n=16
# [12] = Steady-state 10 mg BID Veliparib, week 3, n=18
smiles,measurement,setting,value
C[C@]1(c2nc3c(C(N)=O)cccc3[nH]2)CCCN1 [Veliparib],Accumulation for BID dosing,[1]; BID dosing,56%
same,"CL/F, apparent oral clearance","[1]; Single (initial) dose 10 mg Veliparib, n=16",27.0 ± 9.0 L/h and 27.0 ± 9.2 L/h
same,"t1/2,z apparent terminal phase half-life",[1]; [11],5.8 ± 0.9 h
same,"Cmin, minimum drug concentration in plasma","[1]; Single dose 10 mg Veliparib, n=16, geometric mean ± SD",2.5 ± 1.3 ng/mL
same,"CL/F, apparent oral clearance","[1]; Steady-state 10 mg BID Veliparib, n=18",23.5 ± 10.4 L/h
same,"Cmin, minimum drug concentration in plasma",[1]; [12],18.4 ± 10.4 ng/mL
same,Accumulation,[1]; Steady-state 10 mg BID dosing,56%
same,Cmax,[1]; [11],50.3 ± 19 ng/mL
same,Cmax,[1]; [12],66.1 ± 28.7 ng/mL
same,Peak and trough concentrations throughout six weeks of daily dosing,[1]; veliparib 20 mg BID concurrently with daily temozolomide (so in the source),remains stable
same,"Patients with platelets <25,000/mm^3","[2]; 12 patients, veliparib 10 mg BID + TMZ + RT",3 patients
same,Anemia,"[2]; human, in vivo, 6 weeks",1 (4.2) n (%)
same,"Any adverse event (dose limiting, possibly related)","[2]; human, in vivo, 6 weeks",11 (45.8) n (%)
same,Febrile neutropenia,"[2]; human, in vivo, 6 weeks",1 (4.2) n (%)
same,Neutropenia,"[2]; human, in vivo, 6 weeks",2 (8.3) n (%)
same,Pancytopenia,"[2]; human, in vivo, 6 weeks",1 (4.2) n (%)
same,Subjects with ≥ 1 AE (Blood and Lymphatic Systemic Disorders),"[2]; human, in vivo, 6 weeks",9 (37.5) n (%)
same,Thrombocytopenia,"[2]; human, in vivo, 6 weeks",7 (29.2) n (%)
same,Number of dose limiting toxicities (DLT),[2]; in vivo,one
same,Tolerable dose (maximum tolerated dose),"[2]; with TMZ and six weeks of standard radiation, even with 50% dose reductions",a tolerable dose of veliparib could not be found
same,Survival at 2 years,[3],25%
same,Median survival,[3]; 95%CI: 8–16 months,13 months
same,Crossing of the blood brain barrier,[4],cross the blood brain barrier
same,Bioavailability,[5],good bioavailability
same,Bioavailability,[6],good bioavailability
same,"Hematologic toxicity (neutropenia, thrombocytopenia, and anemia)",[7]; veliparib 40 mg BID each day of standard adjuvant TMZ (days 1–5) after concurrent RT/TMZ,increased but acceptable hematologic toxicity
same,Survival benefit,[7]; veliparib 40 mg BID each day of standard adjuvant TMZ (days 1–5),without survival benefit
same,Adverse events compared with placebo,[8],no increase in adverse events
same,Effect of TMZ co-administration on the clearance of veliparib,[9],no effect
same,Effect of veliparib coadministration on TMZ plasma exposures,[10],does not affect
